# What was measured:
# Type in all cases: in vivo
# [1] = system: diamondback moth (Plutella xylostella (L.)); assay: Test A: control of diamondback moth, foliar spray on mustard plant; conditions: sprayed at 250 ppm; neonate larvae on mustard plant; assessed after 6 days
# Experimental: (§1) Test compounds were formulated using a solution containing 10% acetone, 90% water and 300 ppm X-77® Spreader Lo-Foam Formula non-ionic surfactant containing alkylarylpolyoxyethylene, free fatty acids, glycols and isopropanol (Loveland Industries, Inc. Greeley, Colo., USA). The formulated compounds were applied in 1 mL of liquid through a SUJ2 atomizer nozzle with ⅛ JJ custom body (Spraying Systems Co. Wheaton, Ill., USA) positioned 1.27 cm (0.5 inches) above the top of each test unit. Test compounds were sprayed at the rates indicated, and each test was replicated three times.
# For evaluating control of diamondback moth (Plutella xylostella (L.)) the test unit consisted of a small open container with a 12-14-day-old mustard plant inside. This was pre-infested with ˜50 neonate larvae that were dispensed into the test unit via corn cob grits using an inoculator. The larvae moved onto the test plant after being dispensed into the test unit.
# Test compounds were formulated and sprayed at 250 and/or 50 ppm. After spraying of the formulated test compound, each test unit was allowed to dry for 1 hour and then a black, screened cap was placed on top. The test units were held for 6 days in a growth chamber at 25° C. and 70% relative humidity. Plant feeding damage was then visually assessed based on foliage consumed, and larvae were assessed for mortality.
# [2] = system: green peach aphid (Myzus persicae (Sulzer)); assay: Test C: control of green peach aphid, spray on radish plant; conditions: 144 h, sprayed at 50 ppm, assessed after 6 days
# Experimental: as §1
# For evaluating control of green peach aphid (Myzus persicae (Sulzer)) through contact and/or systemic means, the test unit consisted of a small open container with a 12-15-day-old radish plant inside. This was pre-infested by placing on a leaf of the test plant 30-40 aphids on a piece of leaf excised from a culture plant (cut-leaf method). The aphids moved onto the test plant as the leaf piece desiccated. After pre-infestation, the soil of the test unit was covered with a layer of sand.
# Test compounds were formulated and sprayed at 250 and/or 50 ppm. After spraying of the formulated test compound, each test unit was allowed to dry for 1 hour and then a black, screened cap was placed on top. […] Each test unit was then visually assessed for insect mortality.
# [3] = system: cotton melon aphid (Aphis gossypii (Glover)); assay: Test D: control of cotton melon aphid, spray on cotton plant; conditions: 144 h, sprayed at 50 ppm, assessed after 6 days
# Experimental: as §1
# For evaluating control of cotton melon aphid (Aphis gossypii (Glover)) through contact and/or systemic means, the test unit consisted of a small open container with a 6-7-day-old cotton plant inside. This was pre-infested with 30-40 insects on a piece of leaf according to the cut-leaf method, and the soil of the test unit was covered with a layer of sand.
# Test compounds were formulated and sprayed at 250 and/or 50 ppm. After spraying, the test units were maintained in a growth chamber for 6 days at 19° C. and 70% relative humidity. Each test unit was then visually assessed for insect mortality.
# [4] = system: sweetpotato whitefly (Bemisia tabaci (Gennadius)); assay: Test E: control of sweetpotato whitefly, spray on cotton plant; conditions: sprayed at 50 ppm; eggs on cotton plant; assessed after 13 days
# Experimental: as §1
# For evaluating control of the sweetpotato whitefly (Bemisia tabaci (Gennadius)) through contact and/or systemic means, the test unit consisted of a small open container with a 12-14-day-old cotton plant inside. Prior to the spray application, both cotyledons were removed from the plant, leaving one true leaf for the assay. Adult whiteflies were allowed to lay eggs on the plant and then were removed from the test unit. Cotton plants infested with at least 15 eggs were submitted to the test for spraying.
# Test compounds were formulated and sprayed at 250 and/or 50 ppm. After spraying, the test units were allowed to dry for 1 hour. […] Each test unit was then visually assessed for insect mortality.
# [5] = system: Western Flower Thrips (Frankliniellla occidentalis (Pergande)); assay: Test F: control of Western Flower Thrips, spray on Soleil bean plant; conditions: sprayed at 250 ppm; adult thrips on Soleil bean plant; held for 6 days
# Experimental: For evaluating control of the Western Flower Thrips (Frankliniellla occidentalis (Pergande)) through contact and/or systemic means, the test unit consisted of a small open container with a 5-7-day-old Soleil bean plant inside.
# Test compounds were formulated and sprayed at 250 and/or 50 ppm. After spraying, the test units were allowed to dry for 1 hour, and then 22-27 adult thrips were added to each unit. A black, screened cap was placed on top, and the test units were held for 6 days at 25° C. and 45-55% relative humidity.
smiles,measurement,setting,value
CN(C)C(=O)C(C)(C)NC(=O)C(C)(C)NC(=O)c1cccc2nn(-c3cccnc3)cc12 [Compound 2],control efficacy (40% or less feeding damage and/or 100% mortality),[1],very good to excellent levels of control efficacy
"CC(C)(NC(=O)c1cccc2nn(-c3cccnc3)cc12)C(=O)NCc1ccccc1 [Compound 25, N-[1,1-dimethyl-2-oxo-2-[(phenylmethyl)amino]ethyl]-2-(3-pyridinyl)-2H-indazole-4-carboxamide]",mortality at 50 ppm,[2],≥ 80%
same,mortality at 50 ppm,[3],≥ 80%
CC(C)(NC(=O)c1cccc2nn(-c3cccnc3)cc12)C(=O)NCc1ccccn1 [Compound 26],mortality,[4],at least 50%
CC(C)(NC(=O)c1cccc2nn(-c3cccnc3)cc12)C(=O)NC1CCC1 [Compound 43],control efficacy (30% or less plant damage and/or 100% mortality),[5],very good to excellent levels of control efficacy
CON(C)C(=O)C(C)(C)NC(=O)c1cccc2nn(-c3cccnc3)cc12 [Compound 47],control efficacy (30% or less plant damage and/or 100% mortality),[5],very good to excellent levels of control efficacy
CONC(=O)C(C)(C)NC(=O)c1cccc2nn(-c3cccnc3)cc12 [Compound 48],control efficacy (30% or less plant damage and/or 100% mortality),[5],very good to excellent levels of control efficacy

# — patent US10683276B2, “Heterocycle-substituted bicyclic azole pesticides” (FMC Corporation, priority 2015, dated 2020)
